Where two headings read alike, the source gives them in different places.
Target: BRAF V600E (Homo sapiens, UniProt P15056, V600E)
Assay: HiBiT cellular BRAF^V600E degradation assay
Format: cell-based
Conditions: for DC50: concentration at which 50% of total cellular BRAF^V600E is degraded; for Emax: read-out: HiBit 24 h Emax
[1] = A375.10 cells, 24 h, residual protein remaining in the cell

Chain of BRAF V600E (P15056 whole entry V600E): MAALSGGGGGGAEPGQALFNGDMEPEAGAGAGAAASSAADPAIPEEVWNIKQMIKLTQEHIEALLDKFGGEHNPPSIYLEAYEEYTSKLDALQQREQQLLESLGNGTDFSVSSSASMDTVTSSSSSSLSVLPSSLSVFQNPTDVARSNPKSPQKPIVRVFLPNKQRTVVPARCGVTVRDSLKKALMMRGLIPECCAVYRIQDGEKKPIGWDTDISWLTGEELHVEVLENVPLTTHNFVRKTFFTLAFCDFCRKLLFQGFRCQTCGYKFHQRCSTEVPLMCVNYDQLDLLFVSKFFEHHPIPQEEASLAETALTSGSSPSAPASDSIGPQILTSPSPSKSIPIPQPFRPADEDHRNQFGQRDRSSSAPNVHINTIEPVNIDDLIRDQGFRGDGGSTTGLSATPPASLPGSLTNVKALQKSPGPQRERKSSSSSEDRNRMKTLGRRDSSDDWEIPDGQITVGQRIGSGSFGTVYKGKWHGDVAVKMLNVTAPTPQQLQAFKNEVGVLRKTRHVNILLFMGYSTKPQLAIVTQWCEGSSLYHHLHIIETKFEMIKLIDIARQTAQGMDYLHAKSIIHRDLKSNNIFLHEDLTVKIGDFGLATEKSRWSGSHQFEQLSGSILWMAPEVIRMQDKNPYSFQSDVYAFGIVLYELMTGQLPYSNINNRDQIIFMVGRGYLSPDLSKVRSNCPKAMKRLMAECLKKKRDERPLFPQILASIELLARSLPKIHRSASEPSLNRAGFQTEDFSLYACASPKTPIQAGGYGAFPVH

Structure (SMILES) | DC50 (A375.10 cells, 24 h) [nM] | Emax [1] [%] | Emax [%]
CCN(C)S(=O)(=O)Nc1ccc(F)c(Oc2ccc3ncn(C4COC5(CCN(C(=O)CN6CCC(c7ccc8c(C9CCC(=O)NC9=O)nn(C)c8c7)CC6)CC5)C4)c(=O)c3c2)c1C#N (single isomer, unassigned) [Example 150] | 12.4 | 11.5 | –
CCN(C)S(=O)(=O)Nc1ccc(F)c(Oc2ccc3ncn(CCC4CCN(C(=O)CN5CCC(c6ccc7c(C8CCC(=O)NC8=O)nn(C)c7c6)CC5)CC4)c(=O)c3c2)c1C#N (stereo not shown) [Example 144, 6-[2-cyano-3-[[ethyl(methyl)sulfamoyl]amino]-6-fluorophenoxy]-3-[2-[1-[2-[4-[3-(2,6-dioxopiperidin-3-yl)-1-methylindazol-6-yl]piperidin-1-yl]acetyl]piperidin-4-yl]ethyl]-4-oxoquinazoline] | 28.4 | 16.7 | –
CCN(C)S(=O)(=O)Nc1ccc(F)c(Oc2ccc3ncn(-c4cnn(C5CCN(C(=O)CN6CCC(c7c(F)cc(NC8CCC(=O)NC8=O)cc7F)CC6)CC5)c4)c(=O)c3c2)c1C#N (stereo not shown) [Example 20, 6-[2-cyano-3-[[ethyl(methyl)sulfamoyl]amino]-6-fluorophenoxy]-3-[1-[1-[2-[4-[4-[(2,6-dioxopiperidin-3-yl)amino]-2,6-difluorophenyl]piperidin-1-yl]acetyl]piperidin-4-yl]pyrazol-4-yl]-4-oxoquinazoline] | 14.4 | 17.7 | –
CCN(C)S(=O)(=O)Nc1ccc(F)c(Oc2ccc3ncn(-c4cnn(C5CCN(C(=O)CN6CCC(c7ccc(NC8CCC(=O)NC8=O)c(F)c7)CC6)CC5)c4)c(=O)c3c2)c1C#N (stereo not shown) [Example 19, 6-[2-cyano-3-[[ethyl(methyl)sulfamoyl]amino]-6-fluorophenoxy]-3-[1-[1-[2-[4-[4-[(2,6-dioxopiperidin-3-yl)amino]-3-fluorophenyl]piperidin-1-yl]acetyl]piperidin-4-yl]pyrazol-4-yl]-4-oxoquinazoline] | 42.3 | – | 20.6
CCN(C)S(=O)(=O)Nc1ccc(F)c(Oc2ccc3ncn(-c4cnc(N5CCN(C(=O)CN6CCC(c7ccc(N[C@@H]8CCC(=O)NC8=O)cc7F)CC6)CC5)nc4)c(=O)c3c2COC)c1C#N [Example 135, 6-[2-cyano-3-[[ethyl(methyl)sulfamoyl]amino]-6-fluorophenoxy]-3-[2-[4-[2-[4-[4-[[(3R)-2,6-dioxopiperidin-3-yl]amino]-2-fluorophenyl]piperidin-1-yl]acetyl]piperazin-1-yl]pyrimidin-5-yl]-5-(methoxymethyl)-4-oxoquinazoline] | 31.4 | 13.7 | –
CCN(C)S(=O)(=O)Nc1ccc(F)c(Oc2ccc3ncn([C@@H]4COC5(CCN(C(=O)CC6(O)CCN(c7cc8c(cc7F)c(N7CCC(=O)NC7=O)nn8C)CC6)CC5)C4)c(=O)c3c2)c1C#N [Example 228, (3S)-3-[6-[2-cyano-3-[[ethyl(methyl)sulfamoyl]amino]-6-fluoro-phenoxy]-4-oxo-quinazolin-3-yl]-8-[2-[1-[3-(2,4-dioxohexahydropyrimidin-1-yl)-5-fluoro-1-methyl-indazol-6-yl]-4-hydroxy-4-piperidyl]acetyl]-1-oxa-8-azaspiro[4.5]decane] | 18.6 | 7.82 | –

More lines, main results first:

DC50 (A375.10 cells, 24 h) [nM] | Emax [1] [%] | Structure (SMILES) | Emax [%]
22.9 | 9.09 | CCN(C)S(=O)(=O)Nc1ccc(F)c(Oc2ccc3ncc([C@H]4COC5(CCN(C(=O)CN6CCC(c7ccc(NC8CCC(=O)NC8=O)cc7F)CC6)CC5)C4)nc3c2)c1C#N (stereo partly drawn) [Example 224, (3S)-3-[7-[2-cyano-3-[[ethyl(methyl)sulfamoyl]amino]-6-fluorophenoxy]quinoxalin-2-yl]-8-[2-[4-[4-[(2,6-dioxopiperidin-3-yl)amino]-2-fluorophenyl]piperidin-1-yl]acetyl]-1-oxa-8-azaspiro[4.5]decane] | –
27.7 | 10.7 | CCN(C)S(=O)(=O)Nc1ccc(F)c(Oc2ccc3ncn(C4CCC5(CCN(C(=O)CN6CCC(c7ccc(NC8CCC(=O)NC8=O)cc7F)CC6)CC5)C4)c(=O)c3c2Cl)c1C#N (stereo not shown) [Example 70, 5-chloro-6-[2-cyano-3-[[ethyl(methyl)sulfamoyl]amino]-6-fluorophenoxy]-3-[8-[2-[4-[4-[(2,6-dioxopiperidin-3-yl)amino]-2-fluorophenyl]piperidin-1-yl]acetyl]-8-azaspiro[4.5]decan-3-yl]-4-oxoquinazoline] | –
27.9 | 10 | CCN(C)S(=O)(=O)Nc1ccc(F)c(Oc2ccc3ncn(CCN4CCN(C(=O)CN5CCC(c6ccc(NC7CCC(=O)NC7=O)cc6F)CC5)CC4)c(=O)c3c2)c1C#N (stereo not shown) [Example 8, 6-[2-cyano-3-[[ethyl(methyl)sulfamoyl]amino]-6-fluorophenoxy]-3-[2-[4-[2-[4-[4-[(2,6-dioxopiperidin-3-yl)amino]-2-fluorophenyl]piperidin-1-yl]acetyl]piperazin-1-yl]ethyl]-4-oxoquinazoline] | –
22.7 | 11.5 | CCN(C)S(=O)(=O)Nc1ccc(F)c(Oc2ccc3ncn(CCCC4CCN(C(=O)CN5CCC(c6ccc(NC7CCC(=O)NC7=O)cc6F)CC5)CC4)c(=O)c3c2)c1C#N (stereo not shown) [Example 6, 6-[2-cyano-3-[[ethyl(methyl)sulfamoyl]amino]-6-fluorophenoxy]-3-[3-[1-[2-[4-[4-[(2,6-dioxopiperidin-3-yl)amino]-2-fluorophenyl]piperidin-1-yl]acetyl]piperidin-4-yl]propyl]-4-oxoquinazoline] | –
10.1 | 9.52 | CCN(C)S(=O)(=O)Nc1ccc(F)c(Oc2ccc3ncn(CCC(C)C4CCN(C(=O)CN5CCC(c6ccc(NC7CCC(=O)NC7=O)cc6F)CC5)CC4)c(=O)c3c2)c1C#N (stereo not shown) [Example 11, 6-[2-cyano-3-[[ethyl(methyl)sulfamoyl]amino]-6-fluorophenoxy]-3-[3-[1-[2-[4-[4-[(2,6-dioxopiperidin-3-yl)amino]-2-fluorophenyl]piperidin-1-yl]acetyl]piperidin-4-yl]butyl]-4-oxoquinazoline] | –
20.9 | 11.5 | CCN(C)S(=O)(=O)Nc1ccc(F)c(Oc2ccc3ncn(C4CCC5(CCN(C(=O)CN6CCC(c7ccc(NC8CCC(=O)NC8=O)cc7F)CC6)CC5)C4)c(=O)c3c2C)c1C#N (stereo not shown) [Example 57, 6-[2-cyano-3-[[ethyl(methyl)sulfamoyl]amino]-6-fluorophenoxy]-3-[8-[2-[4-[4-[(2,6-dioxopiperidin-3-yl)amino]-2-fluorophenyl]piperidin-1-yl]acetyl]-8-azaspiro[4.5]decan-3-yl]-5-methyl-4-oxoquinazoline] | –
8.49 | 10 | CCN(C)S(=O)(=O)Nc1cccc(Oc2ccc3ncn(C4CC5(CCN(C(=O)CN6CCC(c7ccc(NC8CCC(=O)NC8=O)cc7F)CC6)CC5)C4)c(=O)c3c2)c1C#N (stereo not shown) [Example 26, 6-[2-cyano-3-[[ethyl(methyl)sulfamoyl]amino]phenoxy]-3-[7-[2-[4-[4-[(2,6-dioxopiperidin-3-yl)amino]-2-fluorophenyl]piperidin-1-yl]acetyl]-7-azaspiro[3.5]nonan-2-yl]-4-oxoquinazoline] | –
16.3 | 16.9 | CCN(C)S(=O)(=O)Nc1ccc(F)c(Oc2ccc3ncn(-c4cnc(N5CCN(C(=O)CN6CCC(c7ccc(N[C@H]8CCC(=O)NC8=O)cc7F)CC6)CC5)nc4)c(=O)c3c2O)c1C#N [Example 136, 6-[2-cyano-3-[[ethyl(methyl)sulfamoyl]amino]-6-fluorophenoxy]-3-[2-[4-[2-[4-[4-[[(3S)-2,6-dioxopiperidin-3-yl]amino]-2-fluorophenyl]piperidin-1-yl]acetyl]piperazin-1-yl]pyrimidin-5-yl]-5-hydroxy-4-oxoquinazoline] | –
